From patent US20030190364A1, “Biological affinity based delivery systems” (priority 2002, published 2003)
pKd: −log10 of the molar value. Like-named read-outs stand apart in the source and are kept apart here. Where no end group is shown, it is not given here. [ ]: non-standard residue; d: D form. The star is where a group is joined. FITC = O=C1OC2(c3ccc(O)cc3Oc3cc(O)ccc32)c2ccc(NC(=S)*)cc21; Dansyl = CN(C)c1cccc2c(S(=O)(=O)*)cccc12; βAla = NCCC(=O)O

Experiments:
[1] = Relative affinity to heparin of synthesized peptides (Table 2); assay type: binding; conditions: corresponds to the bold-faced amino acids of the sequence
[2] = Heparin affinity column, NaCl concentration required for elution; assay type: binding; conditions: 50 mM sodium phosphate pH 7.5, gradient 0 to 2 M NaCl over 20 column volumes
Procedure: For purposes of the present invention, conditions for determining the affinity of the PB polypeptides (and/or the therapeutic agent) for heparin are as follows: The polypeptide is solubilized in 50 mM sodium phosphate buffer, pH 7.5 to a final concentration of 0.5 mg/ml. 1 mg of the polypeptide is loaded onto an Amersham Biosciences HiPrep 16/10 Heparin FF column (or suitable equivalent) at a flow rate of 5 ml/min at 25° C. After loading the polypeptide, a salt gradient is introduced to the column by increasing the sodium chloride content of the buffer from 0 to 2 M NaCl over 20 column volumes. The recorded NaCl concentration required for elution is determined by correlating the maximum absorbance value at 280 and/or 215 nm for each spectrum to the value of the gradient at that time point.
FIG. 4 is a chart depicting the relative heparin affinity of various heparin-binding peptides. Each peptide was solubilized in 50 mM sodium phosphate buffer, pH 7.5 to a final concentration of 0.5 mg/ml. Then, 1 mg of each peptide was loaded onto an Amersham Biosciences HiPrep 16/10 Heparin FF column at a flow rate of 5 ml/min. After loading the peptide, a salt gradient was introduced to the column by increasing the sodium chloride content of the buffer from 0 to 2 M NaCl over 20 column volumes. The recorded NaCl concentration required for elution was determined by correlating the maximum absorbance value at 280 and/or 215 nm for each spectrum to the value of the gradient at that time point.

[3] = cited from earlier work
[4] = Dissociation constant (KD) of peptides from heparin, literature values; assay type: binding; conditions: PBD3 versus PBD2
[5] = references [1], [2], read-out: Affinity to Heparin (KD)

Substance: AAFAKLAARLYRKAGC [HBD-low]
- Relative Affinity to Heparin [1]: 14.3%

Substance: AKLNCRLYRKANKSSKL [PBD8]
- NaCl Elution Conc. [2]: 481.2 mM

Substance: Dansyl-GYGRKKRRQRRR [Dansyl-TAT]
- NaCl Elution Conc. [2]: 727.6 mM

Substance: FITC-A(β)AAFAKLAARLYRKAGC ({FITC}-[βAla]AAFAKLAARLYRKAGC) [PBD2]
- pKd [3, 5]: 6.43
- NaCl Elution Conc. [2]: 354.8 mM

Substance: FITC-A(β)GGGGYGRKKRRQRRR ({FITC}-[βAla]GGGGYGRKKRRQRRR) [TAT, reference compound]
- pKd ([3]; low molecular weight heparin and heparin to which only one molecule of TAT is bound (Rusnati, 1999), read-out: KD, dissociation constant for TAT from heparin): ~6.15
- pKd [3, 5]: 7.52
- Relative Affinity to Heparin [1]: 170%

Substance: FITC-A(β)KAFAALAARLYRKAGC ({FITC}-[βAla]KAFAALAARLYRKAGC) [PBD3, PBD3 control is the same peptide tested without heparin]
- pKd [3, 5]: 6.18
- dissociation constant relative to that of PBD2 [4]: 1.8 times
- NaCl Elution Conc. [2]: 313.0 mM

Substance: FITC-A(β)KAFAKLAARLYRKAGC ({FITC}-[βAla]KAFAKLAARLYRKAGC) [FITC-PBD1]
- NaCl Elution Conc. [2]: 438.8 mM

Substance: FITC-A(β)YGRKKRRQRRR (AYGRKKRRQRRR; N-terminal FITC-beta-alanine) [FITC-TAT]
- NaCl Elution Conc. [2]: 703.6 mM

Substance: KAFAKLAARLYRKAGC [HBD-high]
- Relative Affinity to Heparin [1]: 100%

Substance: KAFAKLAARLYRKAGC [PBD1-A]
- NaCl Elution Conc. [2]: 325.0 mM

Substance: WKA(β)FAKLNCRLYRKA (WK[βAla]FAKLNCRLYRKA) [PBD7]
- NaCl Elution Conc. [2]: 422.6 mM

Substance: dansyl-GKAFAKLAARLYRKAGC (Dansyl-GKAFAKLAARLYRKAGC) [PBD1]
- NaCl Elution Conc. [2]: 685.9 mM
